Measured values as given in patent publication US12522583B2, “Benzimidazole derivatives and aza-benzimidazole derivatives as Janus kinase 2 inhibitors and uses thereof” (Dana-Farber Cancer Institute, Inc., priority 2018, dated 2026).

Legend:
Test in all cases: KINOMEscan
Type in all cases: binding
Details in all cases: read-out: percent control
[1] = target: ABL1(H396P)-nonphosphorylated (Homo sapiens (Human), UniProt P00519, H396P)
Text: (§1) Example 2. In Vitro Kinase Selectivity Profiling of the Compounds of the Present Disclosure

[2] = target: ACVRL1 (Homo sapiens (Human), UniProt P37023)
ACVRL1, sequence (P37023 22-503): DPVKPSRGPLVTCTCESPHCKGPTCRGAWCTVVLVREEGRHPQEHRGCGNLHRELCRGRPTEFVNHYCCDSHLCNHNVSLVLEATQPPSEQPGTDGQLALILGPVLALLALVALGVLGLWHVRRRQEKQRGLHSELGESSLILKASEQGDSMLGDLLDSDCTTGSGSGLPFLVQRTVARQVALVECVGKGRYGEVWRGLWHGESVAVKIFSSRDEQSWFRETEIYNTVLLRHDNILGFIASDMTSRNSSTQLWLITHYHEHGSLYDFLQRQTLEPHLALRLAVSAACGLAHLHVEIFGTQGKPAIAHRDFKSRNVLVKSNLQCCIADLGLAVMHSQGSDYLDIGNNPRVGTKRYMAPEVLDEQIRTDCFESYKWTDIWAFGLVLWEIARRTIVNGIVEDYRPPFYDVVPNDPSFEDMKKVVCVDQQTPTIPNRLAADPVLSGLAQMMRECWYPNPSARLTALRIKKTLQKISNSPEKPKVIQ
Text: as §1

[3] = target: ASK1 (Homo sapiens (Human), UniProt Q99683)
Text: as §1

[4] = target: BMPR1B (Homo sapiens (Human), UniProt O00238)
BMPR1B, sequence (O00238 14-502): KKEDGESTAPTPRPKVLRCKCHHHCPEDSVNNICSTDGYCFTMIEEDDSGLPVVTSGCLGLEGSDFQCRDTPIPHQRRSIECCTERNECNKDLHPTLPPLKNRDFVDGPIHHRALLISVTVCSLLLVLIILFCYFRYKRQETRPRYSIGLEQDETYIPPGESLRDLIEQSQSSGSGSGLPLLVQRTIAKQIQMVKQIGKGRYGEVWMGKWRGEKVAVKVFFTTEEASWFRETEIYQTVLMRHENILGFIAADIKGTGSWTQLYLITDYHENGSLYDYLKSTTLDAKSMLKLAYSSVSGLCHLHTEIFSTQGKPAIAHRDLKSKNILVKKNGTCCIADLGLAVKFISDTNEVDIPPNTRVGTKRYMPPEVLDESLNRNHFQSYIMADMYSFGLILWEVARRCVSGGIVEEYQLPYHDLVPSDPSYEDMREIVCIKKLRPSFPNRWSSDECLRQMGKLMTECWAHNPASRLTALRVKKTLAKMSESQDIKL
Text: as §1

[5] = target: CAMK4 (Homo sapiens (Human), UniProt Q16566)
Text: as §1

[6] = target: CHEK1 (Homo sapiens (Human), UniProt O14757)
Text: as §1

[7] = target: CSNK2A2 (Homo sapiens (Human), UniProt P19784)
CSNK2A2, sequence (P19784 whole entry): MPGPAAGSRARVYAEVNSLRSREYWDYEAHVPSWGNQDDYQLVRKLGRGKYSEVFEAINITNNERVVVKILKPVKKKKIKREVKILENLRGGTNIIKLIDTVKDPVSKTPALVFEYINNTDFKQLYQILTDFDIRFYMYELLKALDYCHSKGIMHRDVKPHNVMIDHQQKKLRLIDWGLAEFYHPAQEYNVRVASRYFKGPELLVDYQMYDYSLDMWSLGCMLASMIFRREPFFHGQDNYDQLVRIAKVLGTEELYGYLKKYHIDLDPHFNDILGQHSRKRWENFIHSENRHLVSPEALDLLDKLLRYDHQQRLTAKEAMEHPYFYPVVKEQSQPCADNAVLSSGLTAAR
Text: as §1

[8] = target: DMPK (Homo sapiens (Human), UniProt Q09013)
DMPK, sequence (Q09013 whole entry): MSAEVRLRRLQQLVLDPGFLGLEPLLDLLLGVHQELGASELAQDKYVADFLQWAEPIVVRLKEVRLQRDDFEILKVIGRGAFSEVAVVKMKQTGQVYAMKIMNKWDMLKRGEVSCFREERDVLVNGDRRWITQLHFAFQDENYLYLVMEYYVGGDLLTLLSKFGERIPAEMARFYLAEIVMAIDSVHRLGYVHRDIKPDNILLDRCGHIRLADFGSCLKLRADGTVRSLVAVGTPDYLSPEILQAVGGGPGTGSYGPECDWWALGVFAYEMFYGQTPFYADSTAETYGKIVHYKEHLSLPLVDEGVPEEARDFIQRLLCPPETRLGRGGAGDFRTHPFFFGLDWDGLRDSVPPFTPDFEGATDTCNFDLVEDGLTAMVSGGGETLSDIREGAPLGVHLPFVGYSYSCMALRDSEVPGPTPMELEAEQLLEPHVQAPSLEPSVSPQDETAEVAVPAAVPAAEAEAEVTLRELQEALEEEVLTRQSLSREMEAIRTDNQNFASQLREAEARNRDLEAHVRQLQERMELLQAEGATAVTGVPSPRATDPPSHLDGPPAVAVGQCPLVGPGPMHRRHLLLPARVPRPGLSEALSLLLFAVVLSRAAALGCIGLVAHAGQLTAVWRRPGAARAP
Text: as §1

[9] = target: EIF2AK1 (Homo sapiens (Human), UniProt Q9BQI3)
Text: as §1

[10] = target: EPHB4 (Homo sapiens (Human), UniProt P54760)
Text: as §1

[11] = target: ERBB4 (Homo sapiens (Human), UniProt Q15303)
Text: as §1

[12] = target: FAK (Homo sapiens (Human), UniProt Q05397)
Text: as §1

[13] = target: FER (Homo sapiens (Human), UniProt P16591)
Text: as §1

[14] = target: FGFR4 (Homo sapiens (Human), UniProt P22455)
Text: as §1

[15] = target: HIPK3 (Homo sapiens (Human), UniProt Q9H422)
Text: as §1

[16] = target: IRAK1 (Homo sapiens (Human), UniProt P51617)
Text: as §1

[17] = target: ITK (Homo sapiens (Human), UniProt Q08881)
Text: as §1

[18] = target: LRRK2(G20195) (Homo sapiens (Human), UniProt Q5S007, G2019S)
Text: as §1

[19] = target: MARK3 (Homo sapiens (Human), UniProt P27448)
Text: as §1

[20] = target: MAST1 (Homo sapiens (Human), UniProt Q9Y2H9)
Text: as §1

[21] = target: MET(Y1235D) (Homo sapiens (Human), UniProt P08581, Y1235D)
Text: as §1

[22] = target: MRCKA (Homo sapiens (Human), UniProt Q5VT25)
Text: as §1

[23] = target: NLK (Homo sapiens (Human), UniProt Q9UBE8)
Text: as §1

[24] = target: PAK2 (Homo sapiens (Human), UniProt Q13177)
Text: as §1

[25] = target: PAK3 (Homo sapiens (Human), UniProt O75914)
Text: as §1

[26] = target: PCTK2 (Homo sapiens (Human), UniProt Q00537)
Text: as §1

[27] = target: PCTK3 (Homo sapiens (Human), UniProt Q07002)
Text: as §1

[28] = target: PIK3C2B (Homo sapiens (Human), UniProt O00750)
Text: as §1

[29] = target: PIKFYVE (Homo sapiens (Human), UniProt Q9Y2I7)
Text: as §1

[30] = target: PLK2 (Homo sapiens (Human), UniProt Q9NYY3)
Text: as §1

[31] = target: PLK3 (Homo sapiens (Human), UniProt Q9H4B4)
PLK3, sequence (Q9H4B4 whole entry): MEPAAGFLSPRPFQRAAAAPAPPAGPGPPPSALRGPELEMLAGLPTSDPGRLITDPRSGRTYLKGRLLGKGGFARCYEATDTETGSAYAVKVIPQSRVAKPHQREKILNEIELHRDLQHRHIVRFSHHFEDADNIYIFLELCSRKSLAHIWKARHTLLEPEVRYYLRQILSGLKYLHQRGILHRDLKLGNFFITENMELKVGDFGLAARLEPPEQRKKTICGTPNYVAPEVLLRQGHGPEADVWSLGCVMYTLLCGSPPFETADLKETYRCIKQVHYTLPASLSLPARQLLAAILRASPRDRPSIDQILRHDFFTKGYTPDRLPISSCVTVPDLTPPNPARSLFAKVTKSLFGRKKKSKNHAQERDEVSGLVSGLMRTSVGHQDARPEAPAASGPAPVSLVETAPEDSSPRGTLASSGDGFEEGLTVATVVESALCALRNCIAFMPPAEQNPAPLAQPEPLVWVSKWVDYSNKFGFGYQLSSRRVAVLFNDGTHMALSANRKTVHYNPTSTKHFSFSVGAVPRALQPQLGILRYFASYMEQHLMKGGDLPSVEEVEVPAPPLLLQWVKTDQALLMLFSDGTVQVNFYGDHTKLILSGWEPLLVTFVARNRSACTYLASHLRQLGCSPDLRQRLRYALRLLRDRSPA
Text: as §1

[32] = target: RET(M918T) (Homo sapiens (Human), UniProt P07949, M918T)
Text: as §1

[33] = target: RPS6KA5(Kin.Dom.2-C-terminal) (Homo sapiens (Human), UniProt O75582)
Text: as §1

[34] = target: SGK (Homo sapiens (Human), UniProt O00141)
SGK, sequence (O00141 whole entry): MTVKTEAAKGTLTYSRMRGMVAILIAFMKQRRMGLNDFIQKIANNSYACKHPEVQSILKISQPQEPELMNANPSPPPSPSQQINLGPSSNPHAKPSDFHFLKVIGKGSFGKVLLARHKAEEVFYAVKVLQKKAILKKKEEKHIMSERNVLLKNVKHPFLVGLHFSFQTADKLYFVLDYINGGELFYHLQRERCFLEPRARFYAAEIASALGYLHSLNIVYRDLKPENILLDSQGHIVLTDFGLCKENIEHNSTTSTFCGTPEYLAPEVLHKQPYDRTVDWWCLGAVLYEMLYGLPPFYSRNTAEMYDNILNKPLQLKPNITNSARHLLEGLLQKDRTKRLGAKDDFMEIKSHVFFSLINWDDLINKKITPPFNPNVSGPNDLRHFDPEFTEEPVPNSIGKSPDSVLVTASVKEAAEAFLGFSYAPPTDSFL
Text: as §1

[35] = target: SGK3 (Homo sapiens (Human), UniProt Q96BR1)
Text: as §1

[36] = target: TAOK2 (Homo sapiens (Human), UniProt Q9UL54)
Text: as §1

[37] = target: TGFBR2 (Homo sapiens (Human), UniProt P37173)
Text: as §1

[38] = target: TLK2 (Homo sapiens (Human), UniProt Q86UE8)
Text: as §1

[39] = target: TRKC (Homo sapiens (Human), UniProt Q16288)
Text: as §1

[40] = target: TRPM6 (Homo sapiens (Human), UniProt Q9BX84)
TRPM6, sequence (Q9BX84 whole entry): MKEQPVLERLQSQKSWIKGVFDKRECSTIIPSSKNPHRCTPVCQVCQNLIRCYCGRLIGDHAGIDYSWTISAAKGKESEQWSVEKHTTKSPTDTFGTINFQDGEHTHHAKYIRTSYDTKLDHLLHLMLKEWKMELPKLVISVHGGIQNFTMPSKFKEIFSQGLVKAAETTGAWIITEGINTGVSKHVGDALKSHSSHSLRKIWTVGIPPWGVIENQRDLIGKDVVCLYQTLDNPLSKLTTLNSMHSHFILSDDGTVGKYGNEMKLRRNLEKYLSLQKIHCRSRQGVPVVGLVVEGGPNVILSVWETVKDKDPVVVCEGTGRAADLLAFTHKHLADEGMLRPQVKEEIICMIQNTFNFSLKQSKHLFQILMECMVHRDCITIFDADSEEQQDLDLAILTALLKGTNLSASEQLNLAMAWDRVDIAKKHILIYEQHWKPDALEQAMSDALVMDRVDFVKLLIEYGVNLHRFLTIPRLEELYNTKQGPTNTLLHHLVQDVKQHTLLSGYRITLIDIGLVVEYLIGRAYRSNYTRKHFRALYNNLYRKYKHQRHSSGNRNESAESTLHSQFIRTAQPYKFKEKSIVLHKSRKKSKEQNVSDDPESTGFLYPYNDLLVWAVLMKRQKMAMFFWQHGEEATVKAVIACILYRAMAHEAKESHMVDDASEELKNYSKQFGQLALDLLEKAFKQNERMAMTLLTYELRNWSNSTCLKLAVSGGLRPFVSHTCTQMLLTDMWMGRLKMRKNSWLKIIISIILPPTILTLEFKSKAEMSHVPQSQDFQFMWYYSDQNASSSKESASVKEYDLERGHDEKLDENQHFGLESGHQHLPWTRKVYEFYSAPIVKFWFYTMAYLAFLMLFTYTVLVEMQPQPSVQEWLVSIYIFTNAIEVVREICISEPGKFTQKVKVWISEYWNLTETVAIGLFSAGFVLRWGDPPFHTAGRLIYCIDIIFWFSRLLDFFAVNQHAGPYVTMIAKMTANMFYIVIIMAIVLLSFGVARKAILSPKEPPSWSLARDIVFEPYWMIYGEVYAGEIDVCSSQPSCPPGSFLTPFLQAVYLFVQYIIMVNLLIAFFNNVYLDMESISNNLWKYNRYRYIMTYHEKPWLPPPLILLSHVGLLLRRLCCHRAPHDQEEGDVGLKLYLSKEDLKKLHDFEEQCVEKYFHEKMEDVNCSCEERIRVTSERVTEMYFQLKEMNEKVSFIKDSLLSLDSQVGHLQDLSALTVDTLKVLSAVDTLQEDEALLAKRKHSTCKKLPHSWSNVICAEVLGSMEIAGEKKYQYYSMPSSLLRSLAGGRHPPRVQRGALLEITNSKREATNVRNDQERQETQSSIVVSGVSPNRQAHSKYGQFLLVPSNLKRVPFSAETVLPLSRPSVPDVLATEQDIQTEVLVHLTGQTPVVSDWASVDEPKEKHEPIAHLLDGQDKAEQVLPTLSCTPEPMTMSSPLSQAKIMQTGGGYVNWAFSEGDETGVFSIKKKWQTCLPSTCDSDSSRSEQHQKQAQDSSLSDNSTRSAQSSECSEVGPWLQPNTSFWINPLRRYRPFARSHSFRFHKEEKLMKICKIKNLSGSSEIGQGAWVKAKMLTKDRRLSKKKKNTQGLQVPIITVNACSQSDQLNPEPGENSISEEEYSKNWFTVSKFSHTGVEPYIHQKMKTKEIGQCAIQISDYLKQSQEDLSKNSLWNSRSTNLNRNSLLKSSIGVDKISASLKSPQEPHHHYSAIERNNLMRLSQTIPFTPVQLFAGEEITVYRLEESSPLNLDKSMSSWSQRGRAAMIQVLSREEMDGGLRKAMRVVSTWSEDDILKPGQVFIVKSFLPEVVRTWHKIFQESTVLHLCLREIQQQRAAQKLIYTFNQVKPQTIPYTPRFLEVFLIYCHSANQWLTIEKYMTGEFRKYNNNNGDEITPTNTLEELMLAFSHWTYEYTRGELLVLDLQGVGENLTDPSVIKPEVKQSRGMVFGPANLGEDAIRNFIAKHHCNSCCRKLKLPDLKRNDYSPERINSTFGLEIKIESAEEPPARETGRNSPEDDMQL
Text: as §1

`CCN1CCN(Cc2ccc(Nc3nc4ccc(Oc5ccnc(NC(C)=O)c5)cc4n3C)cc2C(F)(F)F)CC1` [Compound I-2] gave a remaining binding at 1 µM [1] of 0.05%, a remaining binding at 1 µM [2] of 85% and a remaining binding at 1 µM [3] of 77%. For the same compound, the remaining binding at 1 µM [4] was 84%, the remaining binding at 1 µM [5] was 98% and the remaining binding at 1 µM [6] was 100%. The remaining binding at 1 µM [7] was 82%, the remaining binding at 1 µM [8] was 94% and the remaining binding at 1 µM [9] was 75%. For the same compound, the remaining binding at 1 µM [10] was 100%, the remaining binding at 1 µM [11] was 84% and the remaining binding at 1 µM [12] was 98%. For the same compound, the remaining binding at 1 µM [13] was 91%, the remaining binding at 1 µM [14] was 100% and the remaining binding at 1 µM [15] was 85%. For the same compound, the remaining binding at 1 µM [16] was 79%, the remaining binding at 1 µM [17] was 97% and the remaining binding at 1 µM [18] was 100%. The remaining binding at 1 µM [19] was 87%, the remaining binding at 1 µM [20] was 74% and the remaining binding at 1 µM [21] was 71%. For the same compound, the remaining binding at 1 µM [22] was 100%, the remaining binding at 1 µM [23] was 84% and the remaining binding at 1 µM [24] was 97%. For the same compound, the remaining binding at 1 µM [25] was 54%, the remaining binding at 1 µM [26] was 91% and the remaining binding at 1 µM [27] was 78%. The remaining binding at 1 µM [28] was 85%, the remaining binding at 1 µM [29] was 80% and the remaining binding at 1 µM [30] was 94%. For the same compound, the remaining binding at 1 µM [31] was 81%, the remaining binding at 1 µM [32] was 0.8% and the remaining binding at 1 µM [33] was 90%. For the same compound, the remaining binding at 1 µM [34] was 85%, the remaining binding at 1 µM [35] was 93% and the remaining binding at 1 µM [36] was 0.25%. For the same compound, the remaining binding at 1 µM [37] was 90%, the remaining binding at 1 µM [38] was 98% and the remaining binding at 1 µM [39] was 44%. The remaining binding at 1 µM [40] was 79%.

Compound `CCN1CCN(Cc2ccc(Nc3nc4ccc(Oc5ccnc(NC(C)=O)c5)c(C)c4n3C)cc2C(F)(F)F)CC1` [Compound I-6, N-(4-(2-(4-((4-ethylpiperazin-1-yl)methyl)-3-(trifluoromethyl)phenylamino)-1,7-dimethyl-1H-benzo[d]imidazol-6-yloxy)pyridin-2-yl)acetamide] has a remaining binding at 1 µM [1] of 1.1%, a remaining binding at 1 µM [2] of 93% and a remaining binding at 1 µM [3] of 97%. The remaining binding at 1 µM [4] was 89%, the remaining binding at 1 µM [5] was 100% and the remaining binding at 1 µM [6] was 100%. The remaining binding at 1 µM [7] was 100%, the remaining binding at 1 µM [8] was 100% and the remaining binding at 1 µM [9] was 29%. For the same compound, the remaining binding at 1 µM [10] was 90%, the remaining binding at 1 µM [11] was 94% and the remaining binding at 1 µM [12] was 94%. For the same compound, the remaining binding at 1 µM [13] was 100%, the remaining binding at 1 µM [14] was 100% and the remaining binding at 1 µM [15] was 76%. For the same compound, the remaining binding at 1 µM [16] was 38%, the remaining binding at 1 µM [17] was 98% and the remaining binding at 1 µM [18] was 69%. The remaining binding at 1 µM [19] was 86%, the remaining binding at 1 µM [20] was 100% and the remaining binding at 1 µM [21] was 44%. The remaining binding at 1 µM [22] was 98%, the remaining binding at 1 µM [23] was 40% and the remaining binding at 1 µM [24] was 98%. It also gave a remaining binding at 1 µM [25] of 77%, a remaining binding at 1 µM [26] of 35% and a remaining binding at 1 µM [27] of 76%. It also gave a remaining binding at 1 µM [28] of 97%, a remaining binding at 1 µM [29] of 93% and a remaining binding at 1 µM [30] of 71%. It also gave a remaining binding at 1 µM [31] of 93%, a remaining binding at 1 µM [32] of 0.15% and a remaining binding at 1 µM [33] of 100%. The remaining binding at 1 µM [34] was 96%, the remaining binding at 1 µM [35] was 100% and the remaining binding at 1 µM [36] was 0%. For the same compound, the remaining binding at 1 µM [37] was 81%, the remaining binding at 1 µM [38] was 97% and the remaining binding at 1 µM [39] was 3.4%. For the same compound, the remaining binding at 1 µM [40] was 84%.
